Measured values published in patent US9034596B1, “Method for fluorescent staining of cellular and intracellular membranes” (KUWAIT UNIVERSITY, priority 2014, dated 2015).

Columns and labels:
cells = experiment: harm to cells incubated with the fluorescent probe; settings: 20 μM, shielded from light
LS174T cells = experiment: fluorescent staining of cellular and intracellular membranes, confocal microscopy; format: cell-based
Protocol: Monolayer cultures were grown in RPMI 1640 medium (Gibco) supplemented with 10% fetal bovine serum (FBS) (Gibco), 1% L-glutamine (Gibco), 1% penicillin/streptomycin (Gibco) as an antibacterial agent and 0.1% amphotericin (Sigma) as an antifungal agent. The cultures were maintained at 37° C. in a CO2 incubator with humidified atmosphere, 5% CO2 and 95% air. Confluent cultures (80-90%) were used for experiments. The cells were then detached by trypsinization and incubation at 37° C. for 2-3 minutes. Fresh medium (10× to trypsin's volume) was added to inhibit trypsin action. The cell suspension was centrifuged at 500 g for three minutes. The supernatant was discarded and the pellet obtained was resuspended in fresh medium. Cells were counted and seeded onto sterile glass cover slips at 5×10^4 cells per slip and incubated overnight to adhere. ZnTnHex-4-PyPCl4 was added and the cells were incubated with the compound in the dark. The cells were then fixed with ice cold absolute ethanol added to a final concentration of 60%, and the plate containing the slips was kept on ice for 10 minutes. The cells were washed with PBS twice and the slips were transferred onto microscopic slides. Vectashield mounting medium from Vector Laboratories was used. The slides were examined using a Zeiss LSM 510 META confocal fluorescence microscope fitted with standard FITC, Rhodamine and DAPI filter sets.
LS174T cells were counted and seeded onto sterile glass cover slips at 5×10^4 cells per slip and incubated over-night to adhere. The dye was added to a final concentration of 0.5-2.5 μM and the cells were incubated with ZnTnHex-4-PyPCl4 in the dark for 15-30 minutes. The cells were then fixed with ice cold absolute ethanol added to a final concentration of 60%, and the plate containing the slips was kept on ice for 10 minutes. The cells were washed with PBS twice and the slips were transferred onto microscopic slides. […] The slides were examined using a Zeiss LSM 510 META confocal fluorescence microscope fitted with standard FITC, Rhodamine and DAPI filter sets.

[1] = storage stability of sterilized probe; settings: refrigerated in the dark

CCCCCC[n+]1ccc(C2=C3C=CC4=[N+]3[Zn]35[n]6c2ccc6C(c2cc[n+](CCCCCC)cc2)=C2C=CC(=[N+]23)C(c2cc[n+](CCCCCC)cc2)=c2ccc([n]25)=C4c2cc[n+](CCCCCC)cc2)cc1 [ZnTnHex-4-PyPCl4, Zn(II) meso-tetrakis(N-n-hexylpyridinium-4-yl)porphyrin tetrachloride]
harm to cells (cells): without harming cells | solubility in water (solubility): water soluble | subcellular localization (LS174T cells; LSI74T cells, 20 μM, 24 hours pre-incubation in the dark, FIG. 2): mitochondria, lysosomes, the ER and the plasma membrane | time to stain cellular and intracellular membranes (LS174T cells; concentrations as low as about 0.5-2.5 μM): ≤ 15 min | concentration needed for staining membranes (LS174T cells; living mammalian cells): 0.5 to 1 µM | storage stability [1]: kept for months
